Among the data in PMC6934184, “Selective DNA-PKcs inhibition extends the therapeutic index of localized radiotherapy and chemotherapy” (The Journal of Clinical Investigation, 2019) are inhibition values, retold here.

In the assay the target is T1, FLT3 D835Y (Homo sapiens, UniProt P36888, D835Y).
T1 construct: purchased Thermo Fisher Scientific (Life Technologies) SelectScreen
As to the kind of experiment: SelectScreen Z'LYTE. It counts as biochemical. The method in brief:
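Percent values come from Thermo SelectScreen profiling of NU5455, combining activity and binding assays. CSF1R was run in Z'LYTE format at Km app ATP, and CAMK1 in Adapta format with ATP listed at 10.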

For orientation: inhibition means the drop in the measured response relative to a control, in per cent. `CN(C(=O)CN1CCOCC1)c1ccc2sc3c(-c4cccc5c(=O)cc(N6CC7CCC(C6)O7)oc45)cccc3c2c1` [NU5455]: the inhibition at 1 µM was -3.9%.
